# Measurements from patent publication US20070270332A1, “METHODS AND ASSAYS USEFUL IN THE TREATMENT OF ALCOHOL DEPENDENCE OR ALCOHOL ABUSE” (priority 1998, published 2007).
# Read-outs that look alike come from different tables or passages of the source.
# Columns and labels:
# [1] = target: T1, Human Mitochondrial ALDH (ALDH-2) (Homo sapiens, UniProt P05091); assay: Inhibition of human mitochondrial ALDH (ALDH-2), competitive and noncompetitive inhibition constants; assay type: biochemical; settings: for ALDH-2 inhibitory potency, in words: comparison with daidzin, daidzein or another compound
# T1 construct: Human, hamster, and rat liver mitochondrial and cytosolic ALDH isozymes were purified as described in Klyosov; from tissue; host or cells: human liver
# T1 sequence (P05091 18-517): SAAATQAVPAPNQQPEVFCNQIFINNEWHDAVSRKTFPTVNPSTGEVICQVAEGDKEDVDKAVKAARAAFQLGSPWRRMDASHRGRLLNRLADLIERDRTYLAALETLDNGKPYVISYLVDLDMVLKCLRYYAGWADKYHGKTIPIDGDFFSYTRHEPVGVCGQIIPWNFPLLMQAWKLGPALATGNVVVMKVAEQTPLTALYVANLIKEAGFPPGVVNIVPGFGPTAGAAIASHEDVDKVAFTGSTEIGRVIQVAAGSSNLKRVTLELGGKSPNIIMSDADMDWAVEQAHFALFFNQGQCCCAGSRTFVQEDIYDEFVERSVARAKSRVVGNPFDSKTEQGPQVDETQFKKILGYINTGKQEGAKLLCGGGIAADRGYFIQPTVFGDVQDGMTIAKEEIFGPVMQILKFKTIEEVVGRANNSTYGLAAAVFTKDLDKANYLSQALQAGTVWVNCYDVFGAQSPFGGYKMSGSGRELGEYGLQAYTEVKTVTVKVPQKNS
# Protocol: Human, hamster, and rat liver mitochondrial and cytosolic ALDH isozymes were purified as described in […] . and Keung, W. […] Stock solutions of all water soluble substrates and test compounds were made in Milli-Q water and all others were in methanol. […] The kinetic parameters Km and Vmax for cytosolic ALDHs have been determined from Lineweaver-Burk plots derived from duplicate determinations of initial velocities whereas those for the mitochondrial isozymes were determined from progress kinetic curves in accordance with the teachings of […] .
# [2] = test system: alcohol preferring Syrian golden hamsters; assay: Ethanol intake suppression (antidipsotropic activity) in alcohol preferring Syrian golden hamsters; settings: for ethanol intake suppression: equivalent doses (0.07 meq/hamster/day), FIG. 1; for ETOH Intake Suppression, %: ethanol-preferring golden hamsters, equivalent doses, i.p.; for suppression of hamster ethanol intake: i.p. dose or equivalent doses
# [3] = test system: hamster liver mitochondria (MAO/ALDH pathway, 5-HT as substrate); assay: Mitochondria-catalyzed 5-HT metabolism (5-HIAL, 5-HIAA, 5-HT depletion), hamster liver mitochondria; assay type: biochemical; settings: for inhibition of 5-HIAA formation: isolated hamster liver mitochondria
# Source text: (§1) Hamster liver mitochondrial preparations were obtained by the well-known method of Johnson & Lardy (see John, D. & Lardy, H. (1967) Meth. Enzymol. 10, 94). The integrity of these mitochondrial preparations, evaluated by measuring their latent glutamate dehydrogenase activity according to the methods of Beaufay, H., and Bendall, D. S., Baudhuin, P. & deDuve, C. (1959) J. Cell Biol. 73, 623-628 before and after the metabolic study, were over 97% and 93%, respectively.
# (§2) Reactions were initiated by the addition of mitochondria and allowed to proceed in a 37° C. shaking water bath for 30 min. Reactions were terminated by the addition of 0.05 ml each of ice-cold 1 M HClO4 and 10 mM EDTA. The samples were kept on ice for 1 hour followed by centrifugation (12,000 rpm) in a microcentrifuge (Microspin 24S, Sorvall) for 15 min. DA, 5-HT, and their major metabolites in the supernatant were analyzed directly by HPLC.
# The HPLC system used in this study consisted of a BAS Sample Sentinel Autosampler with refrigerated (4° C.) sample compartment, PM80 solvent delivery system, and a LC-26 on-line degasser. The detector is a LC-4C amperometric controller with a CC-5 cross-flow thin-layer (0.005″) electrochemical cell composed of glassy carbon and silver/silver chloride reference electrode (Bioanlytical Systems, Inc., West Lafayette, Ind.). For routine analysis, the potential and sensitivity were set at 650 mV and 20 nA full scale, respectively. Column temperature was maintained with a Waters Temperature Control Module (Waters, Milford, Mass.). DA and 5-HT were analyzed on a BAS phase II ODS-3, 3 μm, 3.2×100 mm column. […] DOPAL, DOPAC, 5-HIAL and 5-HIAA were analyzed on a Beckman ultrasphere ODS-5, 5μ, 4.6×250 mm column. […] Data were collected and analyzed with a Nelson data collection system (Perkin-Elmer) or a Waters 740 Data Module. The effect of a test compound on 5-HIAL or DOPAL accumulation measured at five different concentrations were averaged and presented as % of control.
# [4] = test system: rats; settings: cited from earlier work
# [5] = test system: rat liver mitochondria; assay: Mitochondria-catalyzed 5-HIAA formation, rat liver mitochondria; settings: same concentration range
# [6] = target: T1, Human Mitochondrial ALDH (ALDH-2); settings: literature; cited from earlier work
# [7] = test system: hamster liver mitochondria (MAO/ALDH pathway, DA as substrate); assay: Mitochondria-catalyzed DA metabolism (DOPAC formation), hamster liver mitochondria; assay type: biochemical; settings: isolated hamster liver mitochondria
# Source text: as §1
# as §2, with “The samples were kept on ice for 1 hour followed by centrifugation (12,000 rpm) in a microcentrifuge (Microspin 24S, Sorvall) for 15 min.” left out
# The HPLC system used in this study consisted of a BAS Sample Sentinel Autosampler with refrigerated (4° C.) sample compartment, PM80 solvent delivery system, and a LC-26 on-line degasser. […] DA and 5-HT were analyzed on a BAS phase II ODS-3, 3 μm, 3.2×100 mm column. […] DOPAL, DOPAC, 5-HIAL and 5-HIAA were analyzed on a Beckman ultrasphere ODS-5, 5μ, 4.6×250 mm column. […] Data were collected and analyzed with a Nelson data collection system (Perkin-Elmer) or a Waters 740 Data Module. The effect of a test compound on 5-HIAL or DOPAL accumulation measured at five different concentrations were averaged and presented as % of control.
# [8] = human mitochondrial ALDH, read-out: ALDH-2 Ki (competitive inhibition constant)
# [9] = human mitochondrial ALDH, read-out: ALDH-2 αKi (noncompetitive inhibition constant)
Compound,"Ki [1, 8] [nM]","Ki [1, 9] [nM]",ethanol intake suppression [2],"ETOH Intake Suppression, % [2] [%]",other results
"CC(Br)CCCCC(=O)Oc1ccc2c(=O)c(-c3ccc(O)cc3)coc2c1 (centres unmarked) [Compound 14, 7-O-daidzein-6-bromoheptanoate]",20,260,,,"ALDH-2 inhibitory potency, in words [1]: less potent than 7-O-(6-bromohexyl)-daidzein"
"O=c1c(-c2ccc(O)cc2)coc2cc(OCCCCCCBr)ccc12 [Compound 10, 7-O-(6-bromohexyl)-daidzein]",,70,only marginally active,14,"Ki ([1]; read-out: Ki, human ALDH-2): 3 nM"
"O=c1cc(-c2ccccc2)oc2c(O)c(O)ccc12 [Compound 22, 7,8-Dihydroxyflavone]",35000,270000,did not suppress ethanol intake,0,suppression of hamster ethanol intake [2]: do not exert any significant effect on ethanol intake
C=CCOc1ccc2c(=O)c(-c3ccc(O)cc3)coc2c1 [allyl],,,did not suppress ethanol intake,,
"CC[N+](CC)(CC)CCOc1ccc2c(=O)c(-c3ccc(O)cc3)coc2c1 [Compound 15, 7-O-(triethyl-6-aminoethyl)-daidzein]",80,1600,,,
"NCCCCCCOc1ccc2c(=O)c(-c3ccc(O)cc3)coc2c1 [Compound 13, 7-O-(6-aminohexyl)-daidzein]",36,600,did not suppress ethanol intake,,
"O=c1c(-c2ccc(O)cc2)coc2c([C@@H]3O[C@H](CO)[C@@H](O)[C@H](O)[C@H]3O)c(O)ccc12 [Compound 20, Puerarine]",,,,0,"suppression of ethanol consumption in hamsters, in words ([2]; hamsters): not hamsters; suppression of hamster ethanol intake [2]: do not exert any significant effect on ethanol intake; inhibition of 5-HIAA formation [3]: does not inhibit 5-HIAA formation; suppression of ethanol consumption in rats [4]: suppresses ethanol consumption in rats; inhibition of 5-HIAA formation [5]: does inhibit 5-HIAA formation"
O=C(O)CCCCCCCCCOc1ccc2c(=O)c(-c3ccc(O)cc3)coc2c1 [Compound 5],4,50,,84,
"CN(C)CCC(=O)Oc1ccc2c(=O)c(-c3ccc(O)cc3)coc2c1 [Compound 18, 7-O-daidzein-3-dimethylaminopropionate]",1750,24000,,,"ALDH-2 inhibitory potency, in words [1]: less potent inhibitors relative to daidzin"
O=C(O)CCCCCCCCCCOc1ccc2c(=O)c(-c3ccc(O)cc3)coc2c1 [Compound 6],,,,86,
"O=C(CBr)Oc1ccc2c(=O)c(-c3ccc(O)cc3)coc2c1 [Compound 17, 7-O-daidzein-2-bromoacetate]",1800,20000,,,"ALDH-2 inhibitory potency, in words [1]: less potent inhibitors relative to daidzin"
"O=c1cc(-c2ccccc2)oc2cc(O)cc(O)c12 [Compound 21, Chrysin, reference compound]",35000,110000,,0,
CCOc1ccc2c(=O)c(-c3ccc(O)cc3)coc2c1 [Compound 7],35,560,did not suppress ethanol intake,,
O=c1c(-c2ccc(O)cc2)coc2cc(O)cc(O)c12 [genestein],,,did not suppress ethanol intake,,
O=c1c(-c2ccc(O)cc2)coc2cc(OCCC3OCCCO3)ccc12 [Compound 8],,,−30%,32,
"O=C(CCl)Oc1ccc2c(=O)c(-c3ccc(O)cc3)coc2c1 [Compound 16, 7-O-daidzein-2-chloroacetate]",1060,10600,,,"ALDH-2 inhibitory potency, in words [1]: less potent inhibitors relative to daidzin"
"O=C(O)CCCCCOc1ccc2c(=O)c(-c3ccc(O)cc3)coc2c1 [Compound 3, 7-O-[ω-carboxypentyl]-daidzein]",,,,70,suppression of hamster ethanol intake [2]: about 70%
"CC[N+](CC)(CC)CCCCCCOc1ccc2c(=O)c(-c3ccc(O)cc3)coc2c1 [Compound 11, 7-O-(triethyl-6-aminohexyl)-daidzein]",,80,,,"Ki ([1]; read-out: Ki, human ALDH-2): 5 nM"
"O=C(O)CCCCCCOc1ccc2c(=O)c(-c3ccc(O)cc3)coc2c1 [Compound 4, 7-O-[ω-carboxyhexyl]-daidzein]",9,140,,69,suppression of hamster ethanol intake [2]: about 70%
"O=c1c(-c2ccc(O)cc2)coc2cc(O[C@@H]3O[C@H](CO)[C@@H](O)[C@H](O)[C@H]3O)ccc12 [Compound 2, daidzin]",,,> 60%,64,inhibition of human mitochondrial aldehyde dehydrogenase (ALDH-2) [6]: potent and selective inhibitor; inhibition of DOPAC formation [7]: potently inhibit; suppression of hamster ethanol intake [2]: 64%; effect on mitochondria-catalyzed 5-HT depletion ([3]; at concentrations that significantly inhibit 5-HIAA formation): little or no effect; inhibition of 5-HIAA formation [3]: potently inhibit the formation of 5-hydroxyindole-3-acetic acid (5-HIAA); suppression of ethanol consumption in rats [4]: confirmed
"O=c1c(-c2ccc(O)cc2)coc2cc(O)ccc12 [Compound 1, daidzein]",,,−30%,32,suppression of hamster ethanol intake [2]: 32%
